Measurements reported in US9029337B2, “Modulation of factor 7 expression” (Isis Pharmaceuticals, Inc., priority 2007, dated 2015).
Strand notation (5' to 3'): a small letter for the sugar, then the base; units joined by * are phosphorothioate-linked, units joined directly phosphodiester-linked; [ ] holds rarer units or linkages, { } end groups; capitals alone tell only the bases. e = 2'-O-(2-methoxyethyl) (MOE); [5mC] = 5-methylcytosine; d = 2'-deoxy (DNA)

The substances below were run on human Factor 7 mRNA (assay: Antisense inhibition of human Factor 7 mRNA in HepB3 cells, 50 nM antisense oligonucleotide, lipofectin). Details: Table 6, 50 nM, lipofectin, approximately 24 hours.
Type: cell-based
Summary of the method: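 Percent inhibition, untreated cells as reference: derived from RNA collected about 24 hours post-transfection of 4,000-cell wells, with the human RTS 2927 primer probe set and adjustment for total RNA content (RIBOGREEN®).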

Substance	% Inhibition
422263 (antisense eG*eG*dA*dA*dG*dA*dA*dG*dG*dG*dA*d[5mC]*dG*dG*dA*eA*eG*eG*eT*eG) [compound 422263]	19%
422264 (antisense e[5mC]*eG*dG*dA*dA*dG*dA*dA*dG*dG*dG*dA*d[5mC]*dG*dG*eA*eA*eG*eG*eT) [compound 422264]	24%
422265 (antisense eG*e[5mC]*dG*dG*dA*dA*dG*dA*dA*dG*dG*dG*dA*d[5mC]*dG*eG*eA*eA*eG*eG) [compound 422265]	34%
422266 (antisense e[5mC]*eG*d[5mC]*dG*dG*dA*dA*dG*dA*dA*dG*dG*dG*dA*d[5mC]*eG*eG*eA*eA*eG) [compound 422266]	13%
422267 (antisense eG*e[5mC]*dG*d[5mC]*dG*dG*dA*dA*dG*dA*dA*dG*dG*dG*dA*e[5mC]*eG*eG*eA*eA) [compound 422267]	38%
422268 (antisense eA*eG*d[5mC]*dG*d[5mC]*dG*dG*dA*dA*dG*dA*dA*dG*dG*dG*eA*e[5mC]*eG*eG*eA) [compound 422268]	63%
422269 (antisense eG*eA*dG*d[5mC]*dG*d[5mC]*dG*dG*dA*dA*dG*dA*dA*dG*dG*eG*eA*e[5mC]*eG*eG) [compound 422269]	27%
422270 (antisense eT*eG*dA*dG*d[5mC]*dG*d[5mC]*dG*dG*dA*dA*dG*dA*dA*dG*eG*eG*eA*e[5mC]*eG) [compound 422270]	15%
422271 (antisense e[5mC]*eT*dG*dA*dG*d[5mC]*dG*d[5mC]*dG*dG*dA*dA*dG*dA*dA*eG*eG*eG*eA*e[5mC]) [compound 422271]	32%
422272 (antisense eA*e[5mC]*dT*dG*dA*dG*d[5mC]*dG*d[5mC]*dG*dG*dA*dA*dG*dA*eA*eG*eG*eG*eA) [compound 422272]	12%
422273 (antisense eT*eA*d[5mC]*dT*dG*dA*dG*d[5mC]*dG*d[5mC]*dG*dG*dA*dA*dG*eA*eA*eG*eG*eG) [compound 422273]	0%
422274 (antisense eT*eT*dA*d[5mC]*dT*dG*dA*dG*d[5mC]*dG*d[5mC]*dG*dG*dA*dA*eG*eA*eA*eG*eG) [compound 422274]	24%
422275 (antisense eG*eT*dT*dA*d[5mC]*dT*dG*dA*dG*d[5mC]*dG*d[5mC]*dG*dG*dA*eA*eG*eA*eA*eG) [compound 422275]	42%
422276 (antisense eG*eG*dT*dT*dA*d[5mC]*dT*dG*dA*dG*d[5mC]*dG*d[5mC]*dG*dG*eA*eA*eG*eA*eA) [compound 422276]	66%

Same assay, conditions: gapmers targeted to nucleobases 4868 to 4899 of SEQ ID NO: 1, Table 8

Substance	% Inhibition of human Factor 7 mRNA levels
422290 (antisense eT*e[5mC]*dT*dG*d[5mC]*dA*dG*dG*dA*dG*d[5mC]*dG*dG*d[5mC]*d[5mC]*eT*eA*eA*eA*eT) [compound 422290]	50%
422291 (antisense eT*eT*d[5mC]*dT*dG*d[5mC]*dA*dG*dG*dA*dG*d[5mC]*dG*dG*d[5mC]*e[5mC]*eT*eA*eA*eA) [compound 422291]	53%

Same assay, conditions: oligonucleotides targeted to nucleobases 11830 to 11869 of SEQ ID NO: 1 (Table 9)

Substance	% Inhibition (human Factor 7 mRNA levels)
422247 (antisense eG*e[5mC]*dT*dG*dA*dG*dG*dA*dG*dA*d[5mC]*dA*dA*dT*dG*eG*eT*e[5mC]*eA*eG) [compound 422247]	36%
422248 (antisense eG*eG*d[5mC]*dT*dG*dA*dG*dG*dA*dG*dA*d[5mC]*dA*dA*dT*eG*eG*eT*e[5mC]*eA) [compound 422248]	60%
422249 (antisense eT*eG*dG*d[5mC]*dT*dG*dA*dG*dG*dA*dG*dA*d[5mC]*dA*dA*eT*eG*eG*eT*e[5mC]) [compound 422249]	52%
422250 (antisense e[5mC]*eT*dG*dG*d[5mC]*dT*dG*dA*dG*dG*dA*dG*dA*d[5mC]*dA*eA*eT*eG*eG*eT) [compound 422250]	54%
422251 (antisense eG*e[5mC]*dT*dG*dG*d[5mC]*dT*dG*dA*dG*dG*dA*dG*dA*d[5mC]*eA*eA*eT*eG*eG) [compound 422251]	36%

Same assay, conditions: oligonucleotides targeted to nucleobases 13760 to 13789 of SEQ ID NO: 1 (Table 10)

Substance	% Inhibition (human Factor 7 mRNA levels)
422253 (antisense e[5mC]*e[5mC]*dG*d[5mC]*d[5mC]*dG*dG*d[5mC]*dT*d[5mC]*dT*dG*d[5mC]*dT*d[5mC]*eA*eT*e[5mC]*e[5mC]*e[5mC]) [compound 422253]	61%
422254 (antisense e[5mC]*e[5mC]*d[5mC]*dG*d[5mC]*d[5mC]*dG*dG*d[5mC]*dT*d[5mC]*dT*dG*d[5mC]*dT*e[5mC]*eA*eT*e[5mC]*e[5mC]) [compound 422254]	42%
422255 (antisense eA*e[5mC]*d[5mC]*d[5mC]*dG*d[5mC]*d[5mC]*dG*dG*d[5mC]*dT*d[5mC]*dT*dG*d[5mC]*eT*e[5mC]*eA*eT*e[5mC]) [compound 422255]	30%
422256 (antisense e[5mC]*eA*d[5mC]*d[5mC]*d[5mC]*dG*d[5mC]*d[5mC]*dG*dG*d[5mC]*dT*d[5mC]*dT*dG*e[5mC]*eT*e[5mC]*eA*eT) [compound 422256]	29%
422257 (antisense e[5mC]*e[5mC]*dA*d[5mC]*d[5mC]*d[5mC]*dG*d[5mC]*d[5mC]*dG*dG*d[5mC]*dT*d[5mC]*dT*eG*e[5mC]*eT*e[5mC]*eA) [compound 422257]	65%
422258 (antisense eG*e[5mC]*d[5mC]*dA*d[5mC]*d[5mC]*d[5mC]*dG*d[5mC]*d[5mC]*dG*dG*d[5mC]*dT*d[5mC]*eT*eG*e[5mC]*eT*e[5mC]) [compound 422258]	66%
422259 (antisense e[5mC]*eG*d[5mC]*d[5mC]*dA*d[5mC]*d[5mC]*d[5mC]*dG*d[5mC]*d[5mC]*dG*dG*d[5mC]*dT*e[5mC]*eT*eG*e[5mC]*eT) [compound 422259]	61%
422260 (antisense eG*e[5mC]*dG*d[5mC]*d[5mC]*dA*d[5mC]*d[5mC]*d[5mC]*dG*d[5mC]*d[5mC]*dG*dG*d[5mC]*eT*e[5mC]*eT*eG*e[5mC]) [compound 422260]	56%
422261 (antisense eT*eG*d[5mC]*dG*d[5mC]*d[5mC]*dA*d[5mC]*d[5mC]*d[5mC]*dG*d[5mC]*d[5mC]*dG*dG*e[5mC]*eT*e[5mC]*eT*eG) [compound 422261]	47%
422262 (antisense e[5mC]*eT*dG*d[5mC]*dG*d[5mC]*d[5mC]*dA*d[5mC]*d[5mC]*d[5mC]*dG*d[5mC]*d[5mC]*dG*eG*e[5mC]*eT*e[5mC]*eT) [compound 422262]	0%

Same assay, conditions: oligonucleotides targeted to nucleobases 14707 to 14732 of SEQ ID NO: 1 (Table 11)

Substance	% Inhibition (human Factor 7 mRNA levels)
422277 (antisense e[5mC]*e[5mC]*dT*dG*dA*dG*dG*d[5mC]*d[5mC]*dA*dG*d[5mC]*dA*dG*dA*eT*e[5mC]*eA*e[5mC]*eG) [compound 422277]	56%
422278 (antisense eG*e[5mC]*d[5mC]*dT*dG*dA*dG*dG*d[5mC]*d[5mC]*dA*dG*d[5mC]*dA*dG*eA*eT*e[5mC]*eA*e[5mC]) [compound 422278]	64%
422279 (antisense eA*eG*d[5mC]*d[5mC]*dT*dG*dA*dG*dG*d[5mC]*d[5mC]*dA*dG*d[5mC]*dA*eG*eA*eT*e[5mC]*eA) [compound 422279]	56%
422280 (antisense e[5mC]*eA*dG*d[5mC]*d[5mC]*dT*dG*dA*dG*dG*d[5mC]*d[5mC]*dA*dG*d[5mC]*eA*eG*eA*eT*e[5mC]) [compound 422280]	52%
422281 (antisense eG*e[5mC]*dA*dG*d[5mC]*d[5mC]*dT*dG*dA*dG*dG*d[5mC]*d[5mC]*dA*dG*e[5mC]*eA*eG*eA*eT) [compound 422281]	57%
422282 (antisense eA*eG*d[5mC]*dA*dG*d[5mC]*d[5mC]*dT*dG*dA*dG*dG*d[5mC]*d[5mC]*dA*eG*e[5mC]*eA*eG*eA) [compound 422282]	48%
422283 (antisense e[5mC]*eA*dG*d[5mC]*dA*dG*d[5mC]*d[5mC]*dT*dG*dA*dG*dG*d[5mC]*d[5mC]*eA*eG*e[5mC]*eA*eG) [compound 422283]	50%

Same assay, conditions: oligonucleotides targeted to nucleobases 15098 to 15122 of SEQ ID NO: 1 (Table 12)

Substance	% Inhibition (human Factor 7 mRNA levels)
422284 (antisense e[5mC]*eA*d[5mC]*dA*d[5mC]*dA*dT*dG*dG*dA*dG*dT*d[5mC]*dA*dG*e[5mC]*eA*eT*e[5mC]*eG) [compound 422284]	43%
422285 (antisense eG*e[5mC]*dA*d[5mC]*dA*d[5mC]*dA*dT*dG*dG*dA*dG*dT*d[5mC]*dA*eG*e[5mC]*eA*eT*e[5mC]) [compound 422285]	39%
422286 (antisense eA*eG*d[5mC]*dA*d[5mC]*dA*d[5mC]*dA*dT*dG*dG*dA*dG*dT*d[5mC]*eA*eG*e[5mC]*eA*eT) [compound 422286]	53%
422287 (antisense e[5mC]*eA*dG*d[5mC]*dA*d[5mC]*dA*d[5mC]*dA*dT*dG*dG*dA*dG*dT*e[5mC]*eA*eG*e[5mC]*eA) [compound 422287]	41%
422288 (antisense eA*e[5mC]*dA*dG*d[5mC]*dA*d[5mC]*dA*d[5mC]*dA*dT*dG*dG*dA*dG*eT*e[5mC]*eA*eG*e[5mC]) [compound 422288]	44%
422289 (antisense eG*eA*d[5mC]*dA*dG*d[5mC]*dA*d[5mC]*dA*d[5mC]*dA*dT*dG*dG*dA*eG*eT*e[5mC]*eA*eG) [compound 422289]	34%
